From patent US7323452B2, “Method for the accelerated in vivo removal of ethanol” (Wardan, L.L.C., priority 2000, dated 2008)
Marks after values point to notes of the source that are not given here.

Assays:
Assay type in all cases: biochemical
ADH = ADH (Equus caballus, UniProt P00327); assay: Rate of ADH catalyzed NAD+ oxidation of ethanol (rise in absorption at 340 nm) with additives; conditions: pH 9.25
Method: In Examples 51-53, the rate of ADH catalyzed NAD^+ oxidation of alcohol is followed by the rise in absorption at 340 nm, with and without additives. When a solvent (methanol) is needed to dissolve the additive, an equal amount is added to the “blank” or “control”. The results, as summarized in Table 3, indicate the effectiveness of Daidezin, Aloin and Methoxatin as accelerators.
To a 0.01M solution of ethanol (10 μL) in 1M pH 9.25 phosphate buffer, in a multi-well plate, is added a solution of aloin, of the indicated concentration (10 μL) and 10 μL of a solution containing 0.2 U/mL ADH and diluted to 180 μL with buffer. To the mixture is added 20 μL of a 0.01M solution of NAD^+ in deionized distilled water, and the absorbance at 340 nm is followed with time.
The procedure in Example 51 is repeated using Daidezin.
The procedure in Example 51 is repeated using Methoxatin.

[1] = target: T1, Alcohol Dehydrogenase (from Equine liver) (Equus caballus, UniProt P00327); assay: DNP test for acetaldehyde formation: ethanol oxidation by NAD+ with Alcohol Dehydrogenase, with or without additive
T1 construct: Alcohol Dehydrogenase (from Equine liver); from tissue; host or cells: equine liver
Method: (§1) The reagent quenches any oxidative reaction of alcohol as well as detects the formation of acetaldehyde. An orange, crystalline precipitate indicates a positive reaction.
(§2) The DNP reagent is a fresh solution of 0.5 gm. of 2.4-dinitrophenylhydrazine in 20 mL methanol and 5 mL concentrated sulfuric acid, diluted to 50 mL of deionized distilled water.
To a 0.05M solution of ethanol in a 1M (pH 9.25) phosphate buffer (10 μL) are added 10 μL each of a solution 0.08M in NAD^+ (in deionized distilled water) and 4 U/mL Alcohol Dehydrogenase (from Equine liver) in the above buffer, and diluted to 100 μL with buffer. At the end of a specified time, it was quenched with the DNP reagent.
The procedure in Example 1 was repeated with the addition of 10 μL of a 0.01M vanadyl sulfate solution in deionized distilled water.
The procedure-in Example 2 is repeated using a pH 7.25 1M phosphate buffer.
The procedure in Example 3 is repeated using a pH 7.25 1M phosphate buffer.

[2] = Kinetics of transition metal oxidation of NADH (decrease in absorption at 340 nm)
From the text: The rate of oxidation of NADH is followed over time as the decrease in the absorption at 340 nm.
The procedure in Example 43 is repeated replacing vanadyl sulfate with potassium ferricyanide.
The procedure in Example 43 is repeated replacing vanadyl sulfate with sodium molybdate.
The procedure in Example 43 is repeated replacing vanadyl sulfate with sodium phosphotungstate.

[3] = DNP test for acetaldehyde formation: ethanol oxidation with the enzyme solution omitted; conditions: no additive, stood 15 minutes
Method: as §1, §2
The procedure in Example 1 was repeated with the omission of the enzyme solution.
The procedure in Example 3 was repeated with the omission of the enzyme solution.
The procedure in Example 4 was repeated with the omission of NAD^+.
The procedure in Example 2 is repeated using a pH 7.25 1M phosphate buffer.
The procedure in Example 4 is repeated using a pH 7.25 1M phosphate buffer.
The procedure in Example 5 is repeated using a pH 7.25 1M phosphate buffer.

T1 sequence (P00327 whole entry): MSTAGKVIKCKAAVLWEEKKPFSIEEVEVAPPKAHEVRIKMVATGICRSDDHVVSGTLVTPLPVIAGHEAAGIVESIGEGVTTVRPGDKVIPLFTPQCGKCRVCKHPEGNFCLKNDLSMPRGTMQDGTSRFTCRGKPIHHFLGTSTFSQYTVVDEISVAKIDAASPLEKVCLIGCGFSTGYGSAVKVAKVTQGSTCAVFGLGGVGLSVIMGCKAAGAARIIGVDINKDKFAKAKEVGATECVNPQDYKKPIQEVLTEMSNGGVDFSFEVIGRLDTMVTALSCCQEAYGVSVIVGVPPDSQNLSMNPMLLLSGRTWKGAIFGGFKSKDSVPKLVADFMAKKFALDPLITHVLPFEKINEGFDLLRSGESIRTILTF
Sequence of ADH (P00327 whole entry): as above

**Q.** Which results are given for `O=c1c(-c2ccc(O)cc2)coc2cc(O)ccc12` [Daidezin]?
**A.** Relative rates of Ethanol Oxidation in presence of Additives (Control = 1) (ADH; additive .000005M): 1.28; Relative rates of Ethanol Oxidation in presence of Additives (Control = 1) (ADH; additive .00001M): 1.38

**Q.** With ammonium molybdate as the compound, how does the “DNP results of Examples 1-5 repeated with the additive in place of vanadyl sulfate” value ([1]; pH 9.25) read?
**A.** almost identical results

**Q.** For `O=C(O)c1cc(C(=O)O)c2c(n1)C(=O)C(=O)c1cc(C(=O)O)[nH]c1-2` [Methoxatin, 4,5-Dihydro-4,5-dioxo-1H-pyrrolo [2,3-f] quinoline-2,7,9-tricarboxylic acid], which “Relative rates of Ethanol Oxidation in presence of Additives (Control = 1)” value (ADH; additive .000005M) is on record?
**A.** 1.29

**Q.** What about the “Relative rates of Ethanol Oxidation in presence of Additives (Control = 1)” value (ADH; additive .00001M) of the same compound?
**A.** 1.59

**Q.** For sodium phosphotungstate, which “DNP results of Examples 25-30 repeated with the additive in place of vanadyl sulfate” value ([1]; pH 7.25) is on record?
**A.** almost identical results

**Q.** And the “DNP results of Examples 1-5 repeated with the additive in place of vanadyl sulfate” value ([1]; pH 9.25)?
**A.** almost identical results

**Q.** What about the “Slope” value ([2]; pH 7.25) of the same compound?
**A.** 0 mol/L/min

**Q.** What about the “Slope (OD/Min)” value ([2]; pH 7.25) of the same compound?
**A.** 0 OD/Min

**Q.** What about the “Slope” value ([2]; pH 9.25) of the same compound?
**A.** .0000006 mol/L/min

**Q.** What about the “Slope (OD/Min)” value ([2]; pH 9.25) of the same compound?
**A.** .007* OD/Min

**Q.** Which results are given for `O=C1c2c(O)cccc2C([C@@H]2O[C@H](CO)[C@@H](O)[C@H](O)[C@H]2O)c2cc(CO)cc(O)c21` (stereo partly shown) [Aloin]?
**A.** Relative rates of Ethanol Oxidation in presence of Additives (Control = 1) (ADH; additive .000005M): 1.07; Relative rates of Ethanol Oxidation in presence of Additives (Control = 1) (ADH; additive .00001M): 1.19

**Q.** Which “DNP reaction (acetaldehyde formation)” value ([3]; pH 7.25, ethanol + NAD+) does the source give for `NC(=O)c1ccc[n+]([C@@H]2O[C@H](COP(=O)([O-])OP(=O)(O)OC[C@H]3O[C@@H](n4cnc5c(N)ncnc54)[C@H](O)[C@@H]3O)[C@@H](O)[C@H]2O)c1` [NAD^+, Nicotinamide Adenine Dinucleotide, reference compound] here?
**A.** negative

**Q.** And the “DNP reaction (acetaldehyde formation)” value ([3]; pH 9.25, ethanol + NAD+)?
**A.** negative

**Q.** Which “DNP reaction (acetaldehyde formation)” value ([1]; pH 7.25) does the source give for `O=S(=O)([O-])[O-].[O]=[V+2]` [vanadyl sulfate] here?
**A.** positive

**Q.** And the “DNP reaction (acetaldehyde formation)” value ([1]; pH 9.25)?
**A.** positive

**Q.** And the “Slope” value ([2]; pH 7.25)?
**A.** .0000036 mol/L/min

**Q.** What about the “Slope (OD/Min)” value ([2]; pH 7.25) of the same compound?
**A.** .0079 OD/Min

**Q.** What about the “Slope” value ([2]; pH 9.25) of the same compound?
**A.** .000005 mol/L/min

**Q.** What about the “Slope (OD/Min)” value ([2]; pH 9.25) of the same compound?
**A.** .0112 OD/Min

**Q.** Which results are given for `[Na+].[Na+].[O]=[Mo](=[O])([O-])[O-]` [Molybdate, sodium molybdate]?
**A.** Slope ([2]; pH 7.25): .00000012 mol/L/min; Slope (OD/Min) ([2]; pH 7.25, absorption at 340 nm, * unexplained, text mentions an induction period): .0025* OD/Min; Slope ([2]; pH 9.25): .0000003 mol/L/min; Slope (OD/Min) ([2]; pH 9.25, absorption at 340 nm, * unexplained, text mentions an induction period): .0035* OD/Min
